In brackets after ≈: the same amount, converted by molar mass. Where a name gives a salt, the structure may show the parent alone.
Assays:
[1] = Stability in buffer at various pH values (HPLC, 37° C., 24 h); assay type: physicochemical
Description: 0.3 mg of the test substance is weighed into a 2 ml HPLC vial and 0.5 ml of acetonitrile is added. The substance is dissolved by putting the sample vessel in an ultrasonic bath for about 10 seconds. Then 0.5 ml of the respective buffer solution is added, and the sample is again treated in the ultrasonic bath.
• pH 4.0:1 liter of Millipore water is adjusted to pH 4.0 with 1 N hydrochloric acid; • pH 7.4: 90 g of sodium chloride, 13.61 g of potassium dihydrogen phosphate and 83.35 g of 1 M sodium hydroxide solution are made up to 1 liter with Millipore water and then diluted 1:10.
5 μl portions of the test solution are analysed by HPLC for their content of unchanged test substance every hour over a period of 24 hours at 37° C. The percentage areas of the appropriate peaks are used for quantification.
Agilent 1100 with DAD (G1314A), binary pump (G1312A), autosampler (G1329A), column oven (G1316A), thermostat (G1330A); column: Kromasil 100 C18, 125 mm×4.6 mm, 5 μm; column temperature: 30° C.; eluent A: water+5 ml of perchloric acid/liter, eluent B: acetonitrile.
The ratios of the peak areas (F) at the respective time points in relation to the peak areas at the starting time are shown in Table 2 for representative exemplary embodiments: […]

[2] = Determination of the solubility (suspension shaken 24 h at room temperature, HPLC); assay type: physicochemical; details: for solubility at 24 h: thermodynamic from solid
Description: […] This suspension is shaken at room temperature for 24 h. After ultracentrifugation at 224 000 g for 30 min, the supernatant is diluted with DMSO and analysed by HPLC. A two-point calibration plot of the test compound in DMSO is used for quantification.
Agilent 1100 with DAD (G1315A), quat. pump (G1311A), autosampler CTC HTS PAL, degasser (G1322A) and column thermostat (G1316A); column: Zorbax Extend-C18 3.5μ; temperature: 40° C.; eluent A: water+5 ml of perchloric acid/liter, eluent B: acetonitrile; flow rate: 0.7 ml/min; gradient: 0-0.5 min 98% A, 2% B; ramp 0.5-4.5 min 10% A, 90% B; 4.5-6 min 10% A, 90% B; ramp 6.5-6.7 min 98% A, 2% B; 6.7-7.5 min 98% A, 2% B.

[3] = dilute hydrochloric acid (pH 4), pH 4, aqueous buffer, room temperature, 24 h
[4] = buffer pH 4, 37° C., hydrobromide

% test substance after 4 h [F(t = 4 h) × 100/F(t = 0 h)] ([1]; buffer pH 4, 37° C.)	% Test substance after 24 h [F(t = 24 h) × 100/F(t = 0 h)] ([1]; buffer pH 4, 37° C.)	% test substance after 4 h [F(t = 4 h) × 100/F(t = 0 h)] ([1]; buffer pH 7.4, 37° C., hydrobromide)	% Test substance after 24 h [F(t = 24 h) × 100/F(t = 0 h)] ([1]; buffer pH 7.4, 37° C.)	solubility at 24 h [2, 3]	% test substance after 4 h [F(t = 4 h) × 100/F(t = 0 h)] ([1]; buffer pH 7.4, 37° C.)	% test substance after 4 h [F(t = 4 h) × 100/F(t = 0 h)] [1, 4]	% Test substance after 24 h [F(t = 24 h) × 100/F(t = 0 h)] [1, 4]	solubility at 24 h ([2]; 5% dextrose adjusted to pH 4 with hydrochloric acid, pH 4, saline or isotonic)	% test substance after 4 h [F(t = 4 h) × 100/F(t = 0 h)] ([1]; buffer pH 7.4, 37° C., hydrochloride)	Solubility ([2]; dilute hydrochloric acid (pH 4), room temperature, 24 h, hydrochloride)	SMILES
100%	99%	8%	0%	680 µg/mL	–	–	–	–	–	–	CC(C)[C@H](N)C(=O)SCC(=O)N(C[C@H]1CN(c2ccc(N3CCOCC3=O)cc2)C(=O)O1)C(=O)c1ccc(Cl)s1 [Example 10, S-{2-[[(5-Chloro-2-thienyl)carbonyl]({(5S)-2-oxo-3-[4-(3-oxomorpholin-4-yl)phenyl]-1,3-oxazolidin-5-yl}methyl)amino]-2-oxoethyl}(2S)-2-amino-3-methylbutanethioate hydrobromide]
100%	97%	–	0%	–	0%	–	–	–	–	–	NCCCC(=O)N(C[C@H]1CN(c2ccc(N3CCOCC3=O)cc2)C(=O)O1)C(=O)c1ccc(Cl)s1 [Example 19, N-(4-Aminobutanoyl)-5-chloro-N-({(5S)-2-oxo-3-[4-(3-oxomorpholin-4-yl)phenyl]-1,3-oxazolidin-5-yl}methyl)thiophene-2-carboxamide hydrochloride]
100%	94%	–	14%	330 µg/mL	68%	–	–	–	–	–	CNCC(=O)OCC(=O)N(C[C@H]1CN(c2ccc(N3CCOCC3=O)cc2)C(=O)O1)C(=O)c1ccc(Cl)s1 [Example 5, 2-[[(5-Chloro-2-thienyl)carbonyl]({(5S)-2-oxo-3-[4-(3-oxomorpholin-4-yl)phenyl]-1,3-oxazolidin-5-yl}methyl)amino]-2-oxoethyl N-methylglycinate hydrochloride]
100%	99%	–	3%	340 µg/mL	48%	–	–	–	–	–	NCCCC[C@H](N)C(=O)OCC(=O)N(C[C@H]1CN(c2ccc(N3CCOCC3=O)cc2)C(=O)O1)C(=O)c1ccc(Cl)s1 [Example 7, 2-[[(5-Chloro-2-thienyl)carbonyl]({(5S)-2-oxo-3-[4-(3-oxomorpholin-4-yl)phenyl]-1,3-oxazolidin-5-yl}methyl)amino]-2-oxoethyl L-lysinate dihydrochloride]
99%	81%	–	0%	–	2%	–	–	–	–	–	N[C@@H](Cc1c[nH]cn1)C(=O)OCC(=O)N(C[C@H]1CN(c2ccc(N3CCOCC3=O)cc2)C(=O)O1)C(=O)c1ccc(Cl)s1 [Example 8, 2-[[(5-Chloro-2-thienyl)carbonyl]({(5S)-2-oxo-3-[4-(3-oxomorpholin-4-yl)phenyl]-1,3-oxazolidin-5-yl}methyl)amino]-2-oxoethyl L-histidinate dihydrochloride]
–	–	–	0%	–	0%	57%	0%	–	–	–	CNCCCCC(=O)N(C[C@H]1CN(c2ccc(N3CCOCC3=O)cc2)C(=O)O1)C(=O)c1ccc(Cl)s1 [Example 14, 5-Chloro-N-[5-(methylamino)pentanoyl]-N-({(5S)-2-oxo-3-[4-(3-oxomorpholin-4-yl)phenyl]-1,3-oxazolidin-5-yl}methyl)thiophene-2-carboxamide hydrobromide]
100%	100%	–	0%	480 µg/mL	31%	–	–	–	–	–	O=C(OCC(=O)N(C[C@H]1CN(c2ccc(N3CCOCC3=O)cc2)C(=O)O1)C(=O)c1ccc(Cl)s1)[C@@H]1CCCN1 [Example 4, 2-[[(5-Chloro-2-thienyl)carbonyl] ({(5S)-2-oxo-3-[4-(3-oxomorpholin-4-yl)phenyl]-1,3-oxazolidin-5-yl}methyl)amino]-2-oxoethyl L-prolinate hydrochloride]
100%	99%	–	–	–	–	–	–	–	–	–	CNCCCCCC(=O)N(C[C@H]1CN(c2ccc(N3CCOCC3=O)cc2)C(=O)O1)C(=O)c1ccc(Cl)s1 [Example 18, 5-Chloro-N-[6-(methylamino)hexanoyl]-N-({(5S)-2-oxo-3-[4-(3-oxomorpholin-4-yl)phenyl]-1,3-oxazolidin-5-yl}methyl)thiophene-2-carboxamide hydrochloride]
100%	100%	–	66%	–	92%	–	–	> 3000 µg/mL	–	–	NCCCCCC(=O)N(C[C@H]1CN(c2ccc(N3CCOCC3=O)cc2)C(=O)O1)C(=O)c1ccc(Cl)s1 [Example 21, N-(6-Aminohexanoyl)-5-chloro-N-({(5S)-2-oxo-3-[4-(3-oxomorpholin-4-yl)phenyl]-1,3-oxazolidin-5-yl}methyl)thiophene-2-carboxamide hydrochloride]
100%	100%	–	80%	> 500 µg/mL	96%	–	–	–	–	–	CC(C)(N)C(=O)OCC(=O)N(C[C@H]1CN(c2ccc(N3CCOCC3=O)cc2)C(=O)O1)C(=O)c1ccc(Cl)s1 [Example 2, 2-[[(5-Chloro-2-thienyl)carbonyl]({(5S)-2-oxo-3-[4-(3-oxomorpholin-4-yl)phenyl]-1,3-oxazolidin-5-yl}methyl)amino]-2-oxoethyl-2-methylalaninate hydrochloride]
–	–	–	–	8.1 µg/mL (≈ 18.6 µM)	–	–	–	–	–	–	O=C(NC[C@H]1CN(c2ccc(N3CCOCC3=O)cc2)C(=O)O1)c1ccc(Cl)s1 [compound (A), 5-Chloro-N-({(5S)-2-oxo-3-[4-(3-oxomorpholin-4-yl)phenyl]-1,3-oxazolidin-5-yl}methyl)thiophene-2-carboxamide, reference compound]
100%	99%	–	3%	320 µg/mL	49%	–	–	–	–	–	NCC(=O)OCC(=O)N(C[C@H]1CN(c2ccc(N3CCOCC3=O)cc2)C(=O)O1)C(=O)c1ccc(Cl)s1 [Example 1, 2-[[(5-Chloro-2-thienyl)carbonyl]({(5S)-2-oxo-3-[4-(3-oxomorpholin-4-yl)phenyl]-1,3-oxazolidin-5-yl}methyl)amino]-2-oxoethyl glycinate hydrochloride]
–	–	–	–	–	–	–	–	–	10%	960 mg/L	CC(C)[C@H](N)C(=O)SCC(=O)N(C[C@H]1CN(c2ccc(N3CCOCC3=O)cc2)C(=O)O1)C(=O)c1ccc(Cl)s1 [Example 11, S-{2-[[(5-Chloro-2-thienyl)carbonyl]({(5S)-2-oxo-3-[4-(3-oxomorpholin-4-yl)phenyl]-1,3-oxazolidin-5-yl}methyl)amino]-2-oxoethyl}(2S)-2-amino-3-methylbutanethioate hydrochloride]

Reference: patent publication US8101601B2, “Aminoacyl prodrug derivatives and medicaments for the treatment of thromboembolitic disorders” (Bayer Pharma Aktiengesellschaft, priority 2007, dated 2012)
